In paper PMC6600273, “Design, Synthesis and Anti-Platelet Aggregation Activity Study of Ginkgolide-1,2,3-triazole Derivatives” (Molecules, 2019):

System: PAF-induced platelet aggregation
Test: In vitro antiplatelet aggregation activity assay (method of Born), PAF-induced platelet aggregation in platelet-rich plasma
Type: cell-based, New Zealand rabbits
Details: for IC50: rabbit PRP, aggregation induced by PAF (10 nM); for antiplatelet aggregation activity, inhibition ratio in primary screening (result in words): inhibition ratio at 50 nM, Figures 3 and 4
Procedure: The in vitro antiplatelet aggregation activity of the newly synthesized 10-substituted 1,2,3-triazole-ginkgolide derivatives was tested by the method of Born. Blood samples (2 mL) from male New Zealand rabbits (2–2.5 kg body weight) were drawn into vacutainer tubes containing 200 μL of 3.2% sodium citrate. Platelet-rich plasma (PRP) was prepared by centrifuging the blood at 250× g for 10 min at 4 °C. The PRP was diluted with platelet-poor plasma obtained by further centrifuging at 3000× g for 10 min. The remaining blood was further centrifuged at 1600× g for 5 min to obtain platelet-poor plasma (PPP) as control group. Platelet aggregation was induced by PAF (10 nM) after incubating platelets with different concentrations of samples, and the maximum rate of platelet aggregation (RPA%) within 5 min was measured with a Helena Platelet aggregometer instrument. The inhibition ratio was calculated according to the following formula:Inhibition ratio (%) = (1−(RPA% of test group) / (RPA% of control group)) × 100%
In primary screening, the activities were expressed directly as inhibition ratio at 50 nM concentration. […] The values shown in the tables were calculated by linear regression from a single experimental curve with no less than four data points, each point being the mean of the percentage inhibition at a given concentration obtained from three independent experiments.

[1] = Oryctolagus cuniculus, Platelet

Compound	IC50 [1]	antiplatelet aggregation activity, inhibition ratio in primary screening (result in words)	fold increase in antiplatelet aggregation activity in comparison with natural ginkgolide B (1) (ratio of IC50 values vs ginkgolide B)	IC50
C[C@@H]1C(=O)O[C@H]2C[C@@]34[C@H]5C[C@@H](C(C)(C)C)[C@]36[C@@H](OC(=O)[C@@H]6O)O[C@@]4(C(=O)O5)[C@]21O [1′, ginkgolide A, reference compound]	580 ± 50.3 nM	–	–	–
CC1C(=O)OC2C(O)C34C5CC(C(C)(C)C)C36C(OC(=O)C6OCc3cn(-c6ccccc6)nn3)OC4(C(=O)O5)C12O (stereo not shown) [Compound 5a, 10-O-(1-Phenyl-1H-1,2,3-triazole) ginkgolide B]	7.74 ± 1.89 nM	best results	–	–
CC1C(=O)OC2C(O)C34C5CC(C(C)(C)C)C36C(OC(=O)C6OCc3cn(Cc6ccccc6)nn3)OC4(C(=O)O5)C12O (stereo not shown) [Compound 5ff, 10-O-(1-Benzyl-1H-1,2,3-triazole) ginkgolide B]	5.31 ± 1.84 nM	best results	~20 fold	–
Cc1ccccc1-n1cc(COC2C(=O)OC3OC45C(=O)OC6CC(C(C)(C)C)C32C64C(O)C2OC(=O)C(C)C25O)nn1 (stereo not shown) [Compound 5n, 10-O-(1-(2-Methylphenyl)-1H-1,2,3-triazole) ginkgolide B]	20.6 ± 2.84 nM	best results	–	–
CC1C(=O)OC2C(O)C34C5CC(C(C)(C)C)C36C(OC(=O)C6OCc3cn(-c6ccccc6C#N)nn3)OC4(C(=O)O5)C12O (stereo not shown) [Compound 5p, 10-O-(1-(2-Cyanophenyl)-1H-1,2,3-triazole) ginkgolide B]	10.2 ± 2.03 nM	best results	–	–
Cc1cccc(-n2cc(COC3C(=O)OC4OC56C(=O)OC7CC(C(C)(C)C)C43C75C(O)C3OC(=O)C(C)C36O)nn2)c1 (stereo not shown) [Compound 5q, 10-O-(1-(3-Methylphenyl)-1H-1,2,3-triazole) ginkgolide B]	44.3 ± 4.42 nM	–	–	–
ginkgolide B [Compound 1, reference compound]	–	–	–	130 ± 20 nM
ginkgolide C [1″, reference compound]	–	–	–	7540 ± 662 nM
